According to patent publication US20120040996A1, “3-BENZOFURANYL-INDOL-2-ONE DERIVATIVES SUBSTITUTED AT THE 3 POSITION, PREPARATION THEREOF, AND THERAPEUTIC USE THEREOF” (SANOFI, priority 2009, published 2012):
pIC50: −log10 of the molar value.

Molecular target: T1, ghrelin receptor (Rattus norvegicus, UniProt O08725)
T1 construct: Strips of approximately 1 cm (5 mm wide) of gastric fundus were cut out along the longitudinal axis; from tissue; host or cells: rat gastric fundus strips
Assay: Ghrelin concentration-response on electrically stimulated isolated rat gastric fundus strips (headed "In Vivo Test")
Details: electric-field stimulation, ghrelin 0.1 nM-1 μM, antagonist contact time 30 minutes, read-out: IC50, antagonist activity towards the ghrelin receptor
Procedure: Male Crl CD BR rats (Charles River, Italy) weighing 150-175 g were housed in a chamber at regulated temperature (22±1° C.) and humidity (55±10%) and with a 12-hour lightness-darkness cycle, for at least 7 days before their use. Feed and water were available ad libitum. The feed was removed 18 hours before sacrificing the animals. The rats were sacrificed by cervical dislocation, and the stomach was removed surgically, opened along the shorter curvature and placed in a Krebs solution (of composition (mM): 118.4 NaCl; 4.7 KCl; 2.5 CaCl2; 3.7 NaH2PO4; 1.2 MgSO4; 25 NaHCO3; 5.6 glucose). The animals were cared for and sacrificed according to the Sanofi-Aventis international code of ethics and the international principles governing the care and treatment of laboratory animals (EEC Directive 86/609, DJL358, 1, 12 Dec. 1987). […] The contractions were recorded by computer with a data recording and analysis system (Power Lab, Chart 5) connected to isotonic transducers (Ugo Basile, Varese, Italy) via preamplifiers (Octal Bridge Amp). […] The pKb values for the antagonists were calculated according to the Cheng-Prusoff equation (Kenakin et al., Competitive Antagonism, Pharmacologic Analysis of Drug-Receptor Interaction, 3rd edition, 331-373, Philadelphia, New York; Raven: Lippincott, 1997).

T1 sequence (O08725 whole entry): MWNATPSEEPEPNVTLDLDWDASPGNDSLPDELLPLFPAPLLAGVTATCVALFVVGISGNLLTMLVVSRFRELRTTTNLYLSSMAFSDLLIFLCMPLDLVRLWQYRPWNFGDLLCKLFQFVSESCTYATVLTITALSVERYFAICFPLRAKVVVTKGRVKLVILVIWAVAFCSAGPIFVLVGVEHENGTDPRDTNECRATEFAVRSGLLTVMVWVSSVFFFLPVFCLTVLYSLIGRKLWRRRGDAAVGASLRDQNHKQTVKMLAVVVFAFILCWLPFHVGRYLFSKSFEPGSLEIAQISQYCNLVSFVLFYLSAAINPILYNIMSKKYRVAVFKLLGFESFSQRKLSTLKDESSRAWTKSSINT

CCN1CCN(CC(=O)NC2(c3ccc4occc4c3)C(=O)Nc3cc(Cl)cc(Cl)c32)CC1 (single isomer, unassigned; (+)) [Example 1, (+)-N-[4,6-Dichloro-3-(benzofuran-5-yl)-2-oxo-2,3-dihydro-1H-indol-3-yl]-2-(4-ethylpiperazin-1-yl)acetamide]
pIC50: 7.66
